Assay results from US8247211B2, “Glycopeptide antibiotics” (American Cyanamid Company, priority 2001, dated 2012).
Converted amounts (≈) assume the structure as drawn.

Columns and labels:
[1] = tested on: Staphylococcus aureus-SMITH (GC 4543); assay: Acute lethal infection in mice (ED50); format: in vivo; settings: female CD-1 mice, intraperitoneal challenge, intravenous dose 30 min. after infection, 7 day survival ratios
Outline: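 Groups of five female CD-1 mice per dose got intravenous antibiotic in saline or 5% dextrose half an hour after intraperitoneal infection sufficient to kill controls within 24-48 hr. Seven-day survival data from three experiments were combined to derive ED50.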

Escherichia coli [2] = assay: In vitro antibacterial evaluation: minimum inhibitory concentration (MIC), broth dilution method; format: cell-based; settings: broth dilution, 18 hours at 35° C.
Streptococcus sp. = assay: as above; format: cell-based; settings: 18 hours at 35° C.
Outline: (§1)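 NCCLS M7-A2 broth dilution; Muller-Hinton II […]; 5×10^5 CFU/mL; 64-0.06 μg/mL. MIC = lowest concentration with no growth.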

Enterococcus sp. = assay: as above; format: cell-based; settings: 18 hours at 35° C.
Outline: as §1

Staphylococcus sp. = assay: as above; format: cell-based; settings: 18 hours at 35° C.
Outline: as §1

[3] = Anatomic pathology (heart and kidney histopathology) in mice; format: in vivo, CD-1 mice; settings: 20 mg/kg intravenously daily for 9 days, microscopic histopathology on day 10
Outline: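 Histopathology on H&E-stained, paraffin-embedded sections, subjectively scored (slight, mild, moderate, marked, severe) relative to untreated controls. Dosing: glycopeptide antibiotics 20 mg/kg intravenously once daily ×9 days in 20-day-old CD-1 mice, n=5 per group including vehicle.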

Escherichia coli [4] = assay: In vitro antibacterial evaluation: minimum inhibitory concentration (MIC), broth dilution method; format: cell-based; settings: 18 hours at 35° C.
Outline: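 Using Muller-Hinton II […] and an inoculum of 5×10^5 CFU/mL, antibiotic dilutions from 64 down to 0.06 μg/mL were tested following NCCLS M7-A2. The MIC is the lowest concentration inhibiting growth, including in methicillin-, penicillin- or vancomycin-resistant clinical isolates.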

[5] = broth dilution, inoculum 5×10^5 CFU/mL

Cc1ccc(Oc2cccc(-c3nc4cc(CC5NC(=O)C(C(C)c6ccccc6)NC(=O)CNC(=O)C(CO)NC(=O)C(C(O)C6CNC(=N)N6C6OC(CO)C(O)C(O)C6O)NC(=O)C(C(O)C6CNC(=N)N6)NC5=O)ccc4o3)c2)cc1 (stereo not drawn) [Example 28]
median effective dose (ED50), Staphylococcus aureus-SMITH (GC 4543) [1]: 8 mg/kg
MIC Escherichia coli (ATCC 25922) (Escherichia coli [2]): 64 µg/mL (≈ 54.3 µM)
MIC Escherichia coli (GC 4559) (Escherichia coli [2]): 64 µg/mL (≈ 54.3 µM)
MIC Escherichia coli (GC 4560) (Escherichia coli [2]): 8 µg/mL (≈ 6.79 µM)
MIC Streptococcus agalactiae (GC 4564) (Streptococcus sp.; Streptococcus agalactiae (GC 4564), broth dilution): 4 µg/mL (≈ 3.39 µM)
MIC Streptococcus pneumoniae (ATCC 6301) (Streptococcus sp.; Streptococcus pneumoniae (ATCC 6301), broth dilution): 4 µg/mL (≈ 3.39 µM)
MIC Streptococcus pneumoniae (GC 1894) (Streptococcus sp.; Streptococcus pneumoniae (GC 1894), broth dilution): 4 µg/mL (≈ 3.39 µM)
MIC Streptococcus pneumoniae (GC 4565) (Streptococcus sp.; Streptococcus pneumoniae (GC 4565), broth dilution): 4 µg/mL (≈ 3.39 µM)
MIC Streptococcus pyogenes (GC 4563) (Streptococcus sp.; Streptococcus pyogenes (GC 4563), broth dilution): 1 µg/mL (≈ 0.849 µM)
MIC Streptococcus agalactiae (GC 4564) (Streptococcus sp.; broth dilution): 4 µg/mL (≈ 3.39 µM)
MIC Streptococcus pneumoniae (ATCC 6301) (Streptococcus sp.; broth dilution): 4 µg/mL (≈ 3.39 µM)
MIC Streptococcus pneumoniae (GC 1894) (Streptococcus sp.; broth dilution): 4 µg/mL (≈ 3.39 µM)
MIC Streptococcus pneumoniae (GC 4565) (Streptococcus sp.; broth dilution): 4 µg/mL (≈ 3.39 µM)
MIC Streptococcus pyogenes (GC 4563) (Streptococcus sp.; broth dilution): 1 µg/mL (≈ 0.849 µM)
MIC Enterococcus avium (GC 4558) (Enterococcus sp.; Enterococcus avium (GC 4558), broth dilution): 4 µg/mL (≈ 3.39 µM)
MIC Enterococcus faecalis (ATCC 29212) (Enterococcus sp.; Enterococcus faecalis (ATCC 29212), broth dilution): 8 µg/mL (≈ 6.79 µM)
MIC Enterococcus faecalis (GC 2242) (Enterococcus sp.; Enterococcus faecalis (GC 2242), broth dilution): 4 µg/mL (≈ 3.39 µM)
MIC Enterococcus faecalis (GC 2691) (Enterococcus sp.; Enterococcus faecalis (GC 2691), broth dilution): 8 µg/mL (≈ 6.79 µM)
MIC Enterococcus faecalis (GC 3059) (Enterococcus sp.; Enterococcus faecalis (GC 3059), broth dilution): 8 µg/mL (≈ 6.79 µM)
MIC Enterococcus faecalis (GC 4552) (Enterococcus sp.; Enterococcus faecalis (GC 4552), broth dilution): 8 µg/mL (≈ 6.79 µM)
MIC Enterococcus faecalis (GC 4553) (Enterococcus sp.; Enterococcus faecalis (GC 4553), broth dilution): 4 µg/mL (≈ 3.39 µM)
MIC Enterococcus faecalis (GC 4554) (Enterococcus sp.; Enterococcus faecalis (GC 4554), broth dilution): 8 µg/mL (≈ 6.79 µM)
MIC Enterococcus faecalis (GC 6189) (Enterococcus sp.; Enterococcus faecalis (GC 6189), broth dilution): 8 µg/mL (≈ 6.79 µM)
MIC Enterococcus faecium (GC 2243) (Enterococcus sp.; Enterococcus faecium (GC 2243), broth dilution): 8 µg/mL (≈ 6.79 µM)
MIC Enterococcus faecium (GC 4556) (Enterococcus sp.; Enterococcus faecium (GC 4556), broth dilution): 8 µg/mL (≈ 6.79 µM)
MIC Enterococcus faecium (GC 4557) (Enterococcus sp.; Enterococcus faecium (GC 4557), broth dilution): 4 µg/mL (≈ 3.39 µM)
MIC Enterococcus avium (GC 4558) (Enterococcus sp.; broth dilution): 4 µg/mL (≈ 3.39 µM)
MIC Enterococcus faecalis (ATCC 29212) (Enterococcus sp.; broth dilution): 8 µg/mL (≈ 6.79 µM)
MIC Enterococcus faecalis (GC 2242) (Enterococcus sp.; broth dilution): 4 µg/mL (≈ 3.39 µM)
MIC Enterococcus faecalis (GC 2691) (Enterococcus sp.; broth dilution): 8 µg/mL (≈ 6.79 µM)
MIC Enterococcus faecalis (GC 3059) (Enterococcus sp.; broth dilution): 8 µg/mL (≈ 6.79 µM)
MIC Enterococcus faecalis (GC 4552) (Enterococcus sp.; broth dilution): 8 µg/mL (≈ 6.79 µM)
MIC Enterococcus faecalis (GC 4553) (Enterococcus sp.; broth dilution): 4 µg/mL (≈ 3.39 µM)
MIC Enterococcus faecalis (GC 4554) (Enterococcus sp.; broth dilution): 8 µg/mL (≈ 6.79 µM)
MIC Enterococcus faecalis (GC 6189) (Enterococcus sp.; broth dilution): 8 µg/mL (≈ 6.79 µM)
MIC Enterococcus faecium (GC 2243) (Enterococcus sp.; broth dilution): 8 µg/mL (≈ 6.79 µM)
MIC Enterococcus faecium (GC 4556) (Enterococcus sp.; broth dilution): 8 µg/mL (≈ 6.79 µM)
MIC Enterococcus faecium (GC 4557) (Enterococcus sp.; broth dilution): 4 µg/mL (≈ 3.39 µM)
MIC Staphylococcus aureus-SMITH (GC 4543) (Staphylococcus sp.; strain SMITH GC 4543, broth dilution): 4 µg/mL (≈ 3.39 µM)
Anatomical Pathology (Day 10), Heart [3]: 0
Anatomical Pathology (Day 10), Kidney [3]: 0

COc1ccc2cc(COC3C(CO)OC(OC4C(CO)OC(Oc5ccc(CC6NC(=O)C(C(C)c7ccccc7)NC(=O)CNC(=O)C(CO)NC(=O)C(CC7CNC(=N)N7C7OC(CO)C(O)C(O)C7O)NC(=O)C(CC7CNC(=N)N7)NC6=O)cc5)C(O)C4O)C(O)C3O)ccc2c1 (stereo not drawn) [Example 245a, Cyclo[3-(2-iminoimidazolidin-4-yl)alanyl-3-(3-hexopyranosyl-2-iminoimidazolidin-4-yl)-alanylserylglycyl-β-methylphenylalanyl-O-[4-O-[4-O-[(6-methoxy-2-naphthyl)methyl]-hexopyranosyl]hexopyranosyl]tyrosyl]]
median effective dose (ED50), Staphylococcus aureus-SMITH (GC 4543) [1]: 1 mg/kg
MIC Streptococcus agalactiae (GC 4564) (Streptococcus sp.; Streptococcus agalactiae (GC 4564)): 1 µg/mL (≈ 0.698 µM)
MIC Streptococcus pneumoniae (ATCC 6301) (Streptococcus sp.; Streptococcus pneumoniae (ATCC 6301)): 0.5 µg/mL (≈ 0.349 µM)
MIC Streptococcus pneumoniae (GC 1894) (Streptococcus sp.; Streptococcus pneumoniae (GC 1894)): <0.12 µg/mL
MIC Streptococcus pneumoniae (GC 4565) (Streptococcus sp.; Streptococcus pneumoniae (GC 4565)): 1 µg/mL (≈ 0.698 µM)
MIC Streptococcus pyogenes (GC 4563) (Streptococcus sp.; Streptococcus pyogenes (GC 4563)): 1 µg/mL (≈ 0.698 µM)
MIC Streptococcus agalactiae (GC 4564) (Streptococcus sp.; [5]): 1 µg/mL (≈ 0.698 µM)
MIC Streptococcus pneumoniae (ATCC 6301) (Streptococcus sp.; [5]): 0.5 µg/mL (≈ 0.349 µM)
MIC Streptococcus pneumoniae (GC 1894) (Streptococcus sp.; [5]): <0.12 µg/mL
MIC Streptococcus pneumoniae (GC 4565) (Streptococcus sp.; [5]): 1 µg/mL (≈ 0.698 µM)
MIC Streptococcus pyogenes (GC 4563) (Streptococcus sp.; [5]): 1 µg/mL (≈ 0.698 µM)
MIC Enterococcus avium (GC 4558) (Enterococcus sp.; Enterococcus avium (GC 4558)): 4 µg/mL (≈ 2.79 µM)
MIC Enterococcus faecalis (ATCC 29212) (Enterococcus sp.; Enterococcus faecalis (ATCC 29212)): 8 µg/mL (≈ 5.58 µM)
MIC Enterococcus faecalis (GC 2242) (Enterococcus sp.; Enterococcus faecalis (GC 2242)): 4 µg/mL (≈ 2.79 µM)
MIC Enterococcus faecalis (GC 2691) (Enterococcus sp.; Enterococcus faecalis (GC 2691)): 8 µg/mL (≈ 5.58 µM)
MIC Enterococcus faecalis (GC 3059) (Enterococcus sp.; Enterococcus faecalis (GC 3059)): 4 µg/mL (≈ 2.79 µM)
MIC Enterococcus faecalis (GC 4552) (Enterococcus sp.; Enterococcus faecalis (GC 4552)): 8 µg/mL (≈ 5.58 µM)
MIC Enterococcus faecalis (GC 4553) (Enterococcus sp.; Enterococcus faecalis (GC 4553)): 4 µg/mL (≈ 2.79 µM)
MIC Enterococcus faecalis (GC 4554) (Enterococcus sp.; Enterococcus faecalis (GC 4554)): 8 µg/mL (≈ 5.58 µM)
MIC Enterococcus faecalis (GC 6189) (Enterococcus sp.; Enterococcus faecalis (GC 6189)): 8 µg/mL (≈ 5.58 µM)
MIC Enterococcus faecium (GC 2243) (Enterococcus sp.; Enterococcus faecium (GC 2243)): 4 µg/mL (≈ 2.79 µM)
MIC Enterococcus faecium (GC 4556) (Enterococcus sp.; Enterococcus faecium (GC 4556)): 4 µg/mL (≈ 2.79 µM)
MIC Enterococcus faecium (GC 4557) (Enterococcus sp.; Enterococcus faecium (GC 4557)): 2 µg/mL (≈ 1.4 µM)
MIC Enterococcus faecalis (GC 2242) (Enterococcus sp.; [5]): 4 µg/mL (≈ 2.79 µM)
MIC Enterococcus faecalis (GC 2691) (Enterococcus sp.; [5]): 8 µg/mL (≈ 5.58 µM)
MIC Enterococcus faecalis (GC 3059) (Enterococcus sp.; [5]): 4 µg/mL (≈ 2.79 µM)
MIC Escherichia coli (ATCC 25922) (Escherichia coli [4]; Escherichia coli (ATCC 25922)): 32 µg/mL (≈ 22.3 µM)
MIC Escherichia coli (GC 4559) (Escherichia coli [4]; Escherichia coli (GC 4559)): 32 µg/mL (≈ 22.3 µM)
MIC Escherichia coli (GC 4560) (Escherichia coli [4]; Escherichia coli (GC 4560)): 2 µg/mL (≈ 1.4 µM)
MIC Coagulase Negative Staphylococcus (GC 4547) (Staphylococcus sp.; Coagulase Negative Staphylococcus (GC 4547)): 2 µg/mL (≈ 1.4 µM)
MIC Coagulase Negative Staphylococcus (GC 4548) (Staphylococcus sp.; Coagulase Negative Staphylococcus (GC 4548)): 1 µg/mL (≈ 0.698 µM)
MIC Coagulase Negative Staphylococcus (GC 4549) (Staphylococcus sp.; Coagulase Negative Staphylococcus (GC 4549)): 0.5 µg/mL (≈ 0.349 µM)
MIC Coagulase Negative Staphylococcus (GC 4551) (Staphylococcus sp.; Coagulase Negative Staphylococcus (GC 4551)): 2 µg/mL (≈ 1.4 µM)
MIC Coagulase Negative Staphylococcus (GC 6257) (Staphylococcus sp.; Coagulase Negative Staphylococcus (GC 6257)): 1 µg/mL (≈ 0.698 µM)
MIC Staphylococcus aureus (ATCC 29213) (Staphylococcus sp.; Staphylococcus aureus (ATCC 29213)): 2 µg/mL (≈ 1.4 µM)
MIC Staphylococcus aureus (GC 1131) (Staphylococcus sp.; Staphylococcus aureus (GC 1131)): 4 µg/mL (≈ 2.79 µM)
MIC Staphylococcus aureus (GC 3051) (Staphylococcus sp.; Staphylococcus aureus (GC 3051)): 2 µg/mL (≈ 1.4 µM)
MIC Staphylococcus aureus (GC 3053) (Staphylococcus sp.; Staphylococcus aureus (GC 3053)): 2 µg/mL (≈ 1.4 µM)
MIC Staphylococcus aureus (GC 4541) (Staphylococcus sp.; Staphylococcus aureus (GC 4541)): 2 µg/mL (≈ 1.4 µM)
MIC Staphylococcus aureus (GC 4542) (Staphylococcus sp.; Staphylococcus aureus (GC 4542)): 2 µg/mL (≈ 1.4 µM)
MIC Staphylococcus aureus (GC 4544) (Staphylococcus sp.; Staphylococcus aureus (GC 4544)): 2 µg/mL (≈ 1.4 µM)
MIC Staphylococcus aureus (GC 4545) (Staphylococcus sp.; Staphylococcus aureus (GC 4545)): 2 µg/mL (≈ 1.4 µM)
MIC Staphylococcus aureus-SMITH (GC 4543) (Staphylococcus sp.; Staphylococcus aureus-SMITH (GC 4543)): 2 µg/mL (≈ 1.4 µM)
MIC Staphylococcus haemolyticus (GC 4546) (Staphylococcus sp.; Staphylococcus haemolyticus (GC 4546)): 1 µg/mL (≈ 0.698 µM)
Anatomical Pathology (Day 10), Heart [3]: +
Anatomical Pathology (Day 10), Kidney [3]: +++
